Broadly, the Km is the substrate concentration at which the rate is half of its maximum.

The record followed here is ChEMBL document CHEMBL2074175, “Transport of cyclic nucleotides and estradiol 17-beta-D-glucuronide by multidrug resistance protein 4. Resistance to 6-mercaptopurine and 6-thioguanine” (J Biol Chem, 2001).

The target of data set [1] is T1, ATP-binding cassette sub-family C member 4 (Homo sapiens, UniProt O15439).
T1 sequence (O15439 whole entry): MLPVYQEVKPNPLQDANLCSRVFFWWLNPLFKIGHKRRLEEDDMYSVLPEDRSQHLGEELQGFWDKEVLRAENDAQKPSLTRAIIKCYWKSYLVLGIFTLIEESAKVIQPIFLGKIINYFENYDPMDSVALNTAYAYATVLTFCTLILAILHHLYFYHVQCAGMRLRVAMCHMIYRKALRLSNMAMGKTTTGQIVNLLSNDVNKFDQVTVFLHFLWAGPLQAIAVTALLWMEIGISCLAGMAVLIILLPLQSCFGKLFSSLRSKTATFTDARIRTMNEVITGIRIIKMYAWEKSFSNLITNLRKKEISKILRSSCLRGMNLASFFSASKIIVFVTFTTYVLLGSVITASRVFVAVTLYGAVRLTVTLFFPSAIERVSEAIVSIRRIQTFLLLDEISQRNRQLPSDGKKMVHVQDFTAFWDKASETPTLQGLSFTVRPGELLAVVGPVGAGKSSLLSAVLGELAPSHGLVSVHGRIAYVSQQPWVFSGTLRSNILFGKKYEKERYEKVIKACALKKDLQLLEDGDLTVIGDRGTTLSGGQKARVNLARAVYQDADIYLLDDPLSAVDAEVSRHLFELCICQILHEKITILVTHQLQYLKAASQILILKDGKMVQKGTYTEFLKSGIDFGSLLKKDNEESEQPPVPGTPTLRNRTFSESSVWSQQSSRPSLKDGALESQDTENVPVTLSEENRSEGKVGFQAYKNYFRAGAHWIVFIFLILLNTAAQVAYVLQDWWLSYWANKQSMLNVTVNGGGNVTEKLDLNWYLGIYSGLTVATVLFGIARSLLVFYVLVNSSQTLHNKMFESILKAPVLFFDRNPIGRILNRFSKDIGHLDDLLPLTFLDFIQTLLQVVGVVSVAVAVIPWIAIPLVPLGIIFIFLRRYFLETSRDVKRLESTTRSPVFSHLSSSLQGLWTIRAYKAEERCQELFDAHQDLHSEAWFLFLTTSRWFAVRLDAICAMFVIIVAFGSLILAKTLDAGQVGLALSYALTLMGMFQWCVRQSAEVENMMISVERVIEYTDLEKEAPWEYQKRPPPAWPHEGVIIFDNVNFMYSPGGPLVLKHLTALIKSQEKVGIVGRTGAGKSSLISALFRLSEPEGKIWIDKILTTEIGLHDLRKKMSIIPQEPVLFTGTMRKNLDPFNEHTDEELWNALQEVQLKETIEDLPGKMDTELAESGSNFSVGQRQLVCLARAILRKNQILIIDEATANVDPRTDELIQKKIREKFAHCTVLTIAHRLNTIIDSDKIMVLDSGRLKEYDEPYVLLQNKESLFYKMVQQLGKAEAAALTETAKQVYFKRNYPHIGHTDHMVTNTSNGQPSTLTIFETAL
The data set can be described thus: TP_TRANSPORTER: inhibition of E217betaG uptake (E217betaG: 1 uM, cGMP: 300 uM) in membrane vesicles from MRP4-expressing Sf9 cells. The class given is functional, cell membranes, Membrane vesicle. Also noted: scale not given: the % may be the effect or the level left. The following applies: sf9, 300 µM.

In data set [2] the target is T1, ATP-binding cassette sub-family C member 4. The data set can be described thus: TP_TRANSPORTER: efflux in MRP4-expressing NIH3T3 cells. Format: functional, cell-based. The following applies: mouse.
The target of the next data set is T2, MRP4 (ABCC4) (Homo sapiens, UniProt O15439).
T2 sequence (O15439 whole entry): T1 sequence (O15439 whole entry)
The data set can be described thus: TP_TRANSPORTER: inhibition of E217betaG uptake (E217betaG: 1 uM, MTX: 300 uM) in membrane vesicles from MRP4-expressing Sf9 cells. The class given is functional, cell membranes, Membrane vesicle. Also noted: scale not given: the % may be the effect or the level left. The following applies: probe E217betaG (estradiol 17beta-glucuronide), read-out: Activity.

Substrate in data set [3]: [H][C@@]12COP(=O)(O)O[C@@]1([H])[C@@H](O)[C@H](n1cnc3c(=O)[nH]c(N)nc31)O2
In words: (§1) TP_TRANSPORTER: uptake in membrane vesicles from MRP4-expressing Sf9 cells. The class given is functional, cell membranes, Membrane vesicle.

Substrate in data set [4]: C[C@]12CC[C@@H]3c4ccc(O)cc4CC[C@H]3[C@@H]1CC[C@@H]2O[C@@H]1O[C@H](C(=O)O)[C@@H](O)[C@H](O)[C@H]1O
Described as §1. Format: functional, cell membranes, Membrane vesicle.

With `Nc1nc2c(ncn2[C@@H]2O[C@@H]3COP(=O)(O)O[C@H]3[C@H]2O)c(=O)[nH]1`, the Activity in data set [1] is given as 16.2%.
On to `Sc1ncnc2nc[nH]c12` [MERCAPTOPURINE ANHYDROUS], for which, in data set [2], the Activity entry is “substrate [+]”.
For `CN(Cc1cnc2nc(N)nc(N)c2n1)c1ccc(C(=O)N[C@@H](CCC(=O)O)C(=O)O)cc1` [METHOTREXATE], at MRP4 (ABCC4), the activity at 300 µM is 40.3%.

B1: ATP-binding cassette sub-family C member 4 (Homo sapiens) (protein)
chain: T1 sequence (O15439 whole entry)
For the molecule B1, the Km in data set [3] is 9.69 µM; in data set [4], 30.3 µM.
